# Data as given in the CheMixHub viscosity set.
# ± gives the uncertainty stated by the source.
# Experiment: xn = mol fraction of the nth substance listed
structure (smiles),measurement,setting,value
CC(CC(C)(C)C)CP(=O)([O-])CC(C)CC(C)(C)C.CCCCCCCC[P+](C)(C)C (stereo not given) + CCCCCCCCCCCC,viscosity,"298.15 K, 101 kPa, x2 = 0.24",172 ± 11 mPa·s
same,viscosity,"298.15 K, 101 kPa, x2 = 0.41",58.2 ± 2.3 mPa·s
same,viscosity,"298.15 K, 101 kPa, x2 = 0.55",23.8 ± 0.7 mPa·s
same,viscosity,"303.15 K, 101 kPa, x2 = 0.24",129 ± 5 mPa·s
same,viscosity,"303.15 K, 101 kPa, x2 = 0.41",46 ± 1.5 mPa·s
same,viscosity,"303.15 K, 101 kPa, x2 = 0.55",20.1 ± 0.6 mPa·s
same,viscosity,"308.15 K, 101 kPa, x2 = 0.24",99.8 ± 3.5 mPa·s
same,viscosity,"308.15 K, 101 kPa, x2 = 0.41",36.5 ± 1.1 mPa·s
same,viscosity,"308.15 K, 101 kPa, x2 = 0.55",17.1 ± 0.5 mPa·s
same,viscosity,"313.15 K, 101 kPa, x2 = 0.24",79.4 ± 2.7 mPa·s
same,viscosity,"313.15 K, 101 kPa, x2 = 0.41",30 ± 0.9 mPa·s
same,viscosity,"313.15 K, 101 kPa, x2 = 0.55",14.9 ± 0.4 mPa·s
same,viscosity,"318.15 K, 101 kPa, x2 = 0.24",63.3 ± 2.1 mPa·s
same,viscosity,"318.15 K, 101 kPa, x2 = 0.41",25 ± 0.8 mPa·s
same,viscosity,"318.15 K, 101 kPa, x2 = 0.55",12.9 ± 0.4 mPa·s
same,viscosity,"323.15 K, 101 kPa, x2 = 0.24",51.3 ± 1.6 mPa·s
same,viscosity,"323.15 K, 101 kPa, x2 = 0.41",21.3 ± 0.7 mPa·s
CCCCCC(C)O (stereo not given) + CCCCCCCCCCCC,viscosity,"298.15 K, 101 kPa, x2 = 0.0554",4.35 ± 0.06 mPa·s
same,viscosity,"298.15 K, 101 kPa, x2 = 0.0998",3.85 ± 0.06 mPa·s
same,viscosity,"298.15 K, 101 kPa, x2 = 0.1555",3.3 ± 0.06 mPa·s
same,viscosity,"298.15 K, 101 kPa, x2 = 0.1998",2.92 ± 0.06 mPa·s
same,viscosity,"298.15 K, 101 kPa, x2 = 0.2554",2.51 ± 0.06 mPa·s
same,viscosity,"298.15 K, 101 kPa, x2 = 0.2998",2.23 ± 0.06 mPa·s
same,viscosity,"298.15 K, 101 kPa, x2 = 0.3554",1.94 ± 0.06 mPa·s
same,viscosity,"298.15 K, 101 kPa, x2 = 0.4",1.74 ± 0.06 mPa·s
same,viscosity,"298.15 K, 101 kPa, x2 = 0.4555",1.54 ± 0.06 mPa·s
same,viscosity,"298.15 K, 101 kPa, x2 = 0.4999",1.42 ± 0.06 mPa·s
same,viscosity,"298.15 K, 101 kPa, x2 = 0.5554",1.3 ± 0.06 mPa·s
same,viscosity,"298.15 K, 101 kPa, x2 = 0.5998",1.22 ± 0.06 mPa·s
same,viscosity,"298.15 K, 101 kPa, x2 = 0.6554",1.16 ± 0.06 mPa·s
same,viscosity,"298.15 K, 101 kPa, x2 = 0.6998",1.12 ± 0.06 mPa·s
same,viscosity,"298.15 K, 101 kPa, x2 = 0.7553",1.09 ± 0.06 mPa·s
same,viscosity,"298.15 K, 101 kPa, x2 = 0.7999",1.08 ± 0.06 mPa·s
same,viscosity,"298.15 K, 101 kPa, x2 = 0.8554",1.07 ± 0.06 mPa·s
same,viscosity,"298.15 K, 101 kPa, x2 = 0.8995",1.06 ± 0.06 mPa·s
same,viscosity,"298.15 K, 101 kPa, x2 = 0.9546",1.11 ± 0.06 mPa·s
CCCCCCCCCc1ccccc1 + CCCCCCCCCCCCCCCC,viscosity,"293.15 K, 102 kPa, x1 = 0.1006",3.4 ± 0.03 mPa·s
same,viscosity,"293.15 K, 102 kPa, x1 = 0.2005",3.32 ± 0.03 mPa·s
same,viscosity,"293.15 K, 102 kPa, x1 = 0.3005",3.28 ± 0.03 mPa·s
same,viscosity,"293.15 K, 102 kPa, x1 = 0.4001",3.22 ± 0.03 mPa·s
same,viscosity,"293.15 K, 102 kPa, x1 = 0.5008",3.18 ± 0.03 mPa·s
same,viscosity,"293.15 K, 102 kPa, x1 = 0.6006",3.15 ± 0.03 mPa·s
same,viscosity,"293.15 K, 102 kPa, x1 = 0.6997",3.13 ± 0.03 mPa·s
same,viscosity,"293.15 K, 102 kPa, x1 = 0.7978",3.12 ± 0.03 mPa·s
same,viscosity,"293.15 K, 102 kPa, x1 = 0.9003",3.12 ± 0.03 mPa·s
same,viscosity,"303.15 K, 102 kPa, x1 = 0.1006",2.71 ± 0.03 mPa·s
same,viscosity,"303.15 K, 102 kPa, x1 = 0.2005",2.65 ± 0.03 mPa·s
same,viscosity,"303.15 K, 102 kPa, x1 = 0.3005",2.62 ± 0.03 mPa·s
same,viscosity,"303.15 K, 102 kPa, x1 = 0.4001",2.58 ± 0.03 mPa·s
same,viscosity,"303.15 K, 102 kPa, x1 = 0.5008",2.54 ± 0.03 mPa·s
same,viscosity,"303.15 K, 102 kPa, x1 = 0.6006",2.52 ± 0.03 mPa·s
same,viscosity,"303.15 K, 102 kPa, x1 = 0.6997",2.51 ± 0.03 mPa·s
same,viscosity,"303.15 K, 102 kPa, x1 = 0.7978",2.5 ± 0.03 mPa·s
same,viscosity,"313.15 K, 102 kPa, x1 = 0.1006",2.2 ± 0.02 mPa·s
same,viscosity,"313.15 K, 102 kPa, x1 = 0.2005",2.16 ± 0.03 mPa·s
same,viscosity,"313.15 K, 102 kPa, x1 = 0.3005",2.13 ± 0.03 mPa·s
same,viscosity,"313.15 K, 102 kPa, x1 = 0.4001",2.11 ± 0.03 mPa·s
same,viscosity,"313.15 K, 102 kPa, x1 = 0.5008",2.09 ± 0.03 mPa·s
same,viscosity,"313.15 K, 102 kPa, x1 = 0.6006",2.06 ± 0.03 mPa·s
same,viscosity,"313.15 K, 102 kPa, x1 = 0.6997",2.05 ± 0.03 mPa·s
same,viscosity,"313.15 K, 102 kPa, x1 = 0.7978",2.05 ± 0.03 mPa·s
same,viscosity,"313.15 K, 102 kPa, x1 = 0.9003",2.05 ± 0.03 mPa·s
same,viscosity,"323.15 K, 102 kPa, x1 = 0.1006",1.83 ± 0.02 mPa·s
same,viscosity,"323.15 K, 102 kPa, x1 = 0.2005",1.8 ± 0.02 mPa·s
same,viscosity,"323.15 K, 102 kPa, x1 = 0.3005",1.78 ± 0.02 mPa·s
same,viscosity,"323.15 K, 102 kPa, x1 = 0.4001",1.76 ± 0.02 mPa·s
same,viscosity,"323.15 K, 102 kPa, x1 = 0.5008",1.74 ± 0.02 mPa·s
same,viscosity,"323.15 K, 102 kPa, x1 = 0.6006",1.73 ± 0.02 mPa·s
same,viscosity,"323.15 K, 102 kPa, x1 = 0.6997",1.72 ± 0.03 mPa·s
same,viscosity,"323.15 K, 102 kPa, x1 = 0.7978",1.71 ± 0.03 mPa·s
same,viscosity,"323.15 K, 102 kPa, x1 = 0.9003",1.71 ± 0.03 mPa·s
CCCCCCCCCCCCCCCCCCCc1ccccc1 + CCCCCCCCCCCCCCCCCCC,viscosity,"313.15 K, 101 kPa, x2 = 0.1066",7.51 ± 0.06 mPa·s
same,viscosity,"313.15 K, 101 kPa, x2 = 0.1924",7.01 ± 0.06 mPa·s
same,viscosity,"313.15 K, 101 kPa, x2 = 0.433",5.74 ± 0.05 mPa·s
same,viscosity,"313.15 K, 101 kPa, x2 = 0.4887",5.47 ± 0.05 mPa·s
same,viscosity,"313.15 K, 101 kPa, x2 = 0.6377",4.83 ± 0.04 mPa·s
same,viscosity,"313.15 K, 101 kPa, x2 = 0.7465",4.38 ± 0.04 mPa·s
same,viscosity,"313.15 K, 101 kPa, x2 = 0.8251",4.09 ± 0.04 mPa·s
CC(C)NC(C)C + CCCCCCCCCCO,viscosity,"298.15 K, 101 kPa, x1 = 0.0531",9.942 ± 0.089 mPa·s
same,viscosity,"298.15 K, 101 kPa, x1 = 0.1065",8.911 ± 0.084 mPa·s
same,viscosity,"298.15 K, 101 kPa, x1 = 0.1557",8.093 ± 0.081 mPa·s
same,viscosity,"298.15 K, 101 kPa, x1 = 0.2072",7.186 ± 0.077 mPa·s
same,viscosity,"298.15 K, 101 kPa, x1 = 0.2506",6.335 ± 0.074 mPa·s
same,viscosity,"298.15 K, 101 kPa, x1 = 0.3127",5.184 ± 0.07 mPa·s
same,viscosity,"298.15 K, 101 kPa, x1 = 0.4084",3.737 ± 0.066 mPa·s
same,viscosity,"298.15 K, 101 kPa, x1 = 0.5054",2.653 ± 0.063 mPa·s
same,viscosity,"298.15 K, 101 kPa, x1 = 0.6066",1.752 ± 0.061 mPa·s
same,viscosity,"298.15 K, 101 kPa, x1 = 0.7056",1.183 ± 0.061 mPa·s
same,viscosity,"298.15 K, 101 kPa, x1 = 0.8036",0.838 ± 0.06 mPa·s
same,viscosity,"298.15 K, 101 kPa, x1 = 0.853",0.689 ± 0.06 mPa·s
same,viscosity,"298.15 K, 101 kPa, x1 = 0.9073",0.531 ± 0.06 mPa·s
same,viscosity,"298.15 K, 101 kPa, x1 = 0.9521",0.459 ± 0.06 mPa·s
same,viscosity,"303.15 K, 101 kPa, x1 = 0.0531",8.148 ± 0.081 mPa·s
same,viscosity,"303.15 K, 101 kPa, x1 = 0.1065",7.421 ± 0.078 mPa·s
same,viscosity,"303.15 K, 101 kPa, x1 = 0.1557",6.67 ± 0.075 mPa·s
same,viscosity,"303.15 K, 101 kPa, x1 = 0.2072",5.835 ± 0.072 mPa·s
same,viscosity,"303.15 K, 101 kPa, x1 = 0.2506",5.168 ± 0.07 mPa·s
same,viscosity,"303.15 K, 101 kPa, x1 = 0.3127",4.271 ± 0.067 mPa·s
same,viscosity,"303.15 K, 101 kPa, x1 = 0.4084",3.133 ± 0.064 mPa·s
same,viscosity,"303.15 K, 101 kPa, x1 = 0.5054",2.228 ± 0.062 mPa·s
same,viscosity,"303.15 K, 101 kPa, x1 = 0.6066",1.522 ± 0.061 mPa·s
same,viscosity,"303.15 K, 101 kPa, x1 = 0.7056",1.059 ± 0.061 mPa·s
same,viscosity,"303.15 K, 101 kPa, x1 = 0.8036",0.75 ± 0.06 mPa·s
same,viscosity,"303.15 K, 101 kPa, x1 = 0.853",0.628 ± 0.06 mPa·s
same,viscosity,"303.15 K, 101 kPa, x1 = 0.9073",0.494 ± 0.06 mPa·s
same,viscosity,"303.15 K, 101 kPa, x1 = 0.9521",0.43 ± 0.06 mPa·s
same,viscosity,"308.15 K, 101 kPa, x1 = 0.0531",6.888 ± 0.076 mPa·s
same,viscosity,"308.15 K, 101 kPa, x1 = 0.1065",6.317 ± 0.074 mPa·s
same,viscosity,"308.15 K, 101 kPa, x1 = 0.1557",5.66 ± 0.072 mPa·s
same,viscosity,"308.15 K, 101 kPa, x1 = 0.2072",4.947 ± 0.07 mPa·s
same,viscosity,"308.15 K, 101 kPa, x1 = 0.2506",4.413 ± 0.068 mPa·s
same,viscosity,"308.15 K, 101 kPa, x1 = 0.3127",3.777 ± 0.066 mPa·s
same,viscosity,"308.15 K, 101 kPa, x1 = 0.4084",2.732 ± 0.063 mPa·s
same,viscosity,"308.15 K, 101 kPa, x1 = 0.5054",2.059 ± 0.062 mPa·s
same,viscosity,"308.15 K, 101 kPa, x1 = 0.6066",1.375 ± 0.061 mPa·s
same,viscosity,"308.15 K, 101 kPa, x1 = 0.7056",0.956 ± 0.06 mPa·s
same,viscosity,"308.15 K, 101 kPa, x1 = 0.8036",0.702 ± 0.06 mPa·s
same,viscosity,"308.15 K, 101 kPa, x1 = 0.853",0.587 ± 0.06 mPa·s
same,viscosity,"308.15 K, 101 kPa, x1 = 0.9073",0.467 ± 0.06 mPa·s
same,viscosity,"308.15 K, 101 kPa, x1 = 0.9521",0.358 ± 0.06 mPa·s
